Consider 2 compounds from patent US20130052137A1, “PARA AMINO BENZOIC ACID BASED NANOTUBES” (priority 2009, published 2013).

What is called melting point is the temperature, or range, at which the solid turns liquid.

Compound `CCCCCCCCCCCC(=O)Nc1ccc(C(=O)Nc2ccccn2)cc1` [Compound 1a, N-(Pyridine-2-yl)-4-dodecanamido-benzamide] returned a melting point of 152 to 154 °C.

The compound `CCCCCCCCCCCCCCCCCC(=O)Nc1ccc(C(=O)Nc2ccccn2)cc1` [Compound 1b, N-(Pyridin-2-yl)-4-stearamidobenzamide] came in with a melting point of 140 to 142 °C.
